In patent US20110207144A1, “IN VITRO SCREENING ASSAYS” (priority 2009, published 2011):

Tested on: Human Umbilical Vein Endothelial Cell (HUVEC)
Experiment: HUVEC vasculogenesis/angiogenesis assay (HUVEC co-cultured with human fibroblasts, CD31 labeling of vessels)
Format: cell-based
Settings: for all three vessel parameters relative to the control wells: 11 days, p<0.05, one way ANOVA
Protocol: Studies were conducted to determine the effects of anti-LOXL2 antibody AB0023 in an in vitro vasculogenesis/angiogenesis assay. For this purpose, a dose range of AB0023 was tested alongside VEGF (an angiogenesis promoter), suramin (an angiogenesis inhibitor) and media alone in a HUVECs based in vitro system. The assay was run for 11 days with media changes on days 1, 4, 7 and 9. After 11 days, wells were fixed with 70% ethanol and vessels were tested for expression of CD31, an endothelial marker. Images of 4 random fields per well were taken and the number of branch points, number of vessels and total vessel length was calculated for each well using a specialist software analysis package.
At this point (day 1), fresh endothelial cell growth medium containing the test item and controls, as detailed in Table 1, was added to wells at 0.5 ml per well. Test item and controls were added in duplicate or triplicate according to Table 1, and media-only added in triplicate acted as baseline endothelial growth control. The plate was then cultured at 37° C. and 5% CO2. On days 4, 7 and 9 the medium was removed from all wells and carefully replaced with 0.5 ml of fresh medium containing the test item and controls as detailed in Table 1. On day 11, the plates were fixed and labeled for CD31 as detailed below. On each day of the experiment the plate was visualized using an inverted microscope to ensure normal growth cells and no contamination.
After 11 days, plates were fixed by carefully aspirating medium from wells, washed with 1 ml PBS per well, and then 1 ml ice cold 70% ethanol was added for 30 minutes at room temperature. Fixative was then carefully removed and the wells were incubated with 0.5 ml mouse anti-human CD31 antibody diluted 1:400 in PBS containing 1% BSA and incubated for 60 minutes at 37° C. Wells were then washed three times with 1 ml PBS followed by incubation with 0.5 ml goat anti-mouse IgG alkaline phosphatase conjugated secondary antibody diluted 1:500 in PBS containing 1% BSA for 60 minutes at 37° C. Wells were washed a further three times with 1 ml PBS prior to incubation with 0.5 ml freshly prepared and filtered BCIP/NBT substrate for 10 minutes at 37° C. Wells were then carefully washed three times with 1 ml distilled water and left to air dry overnight.
Digital images of each well were obtained using a Nikon Coolpix camera on a Leica inverted microscope at 10× magnification. Four random fields per well were imaged, producing 96 images in total. Images were then converted to BMP files and imported into an image analysis package to measure the number of vessel branches, number of vessels and total vessel length. This is performed by thresholding the image so that only CD31-stained vessels were detected, which the software then skeletonized to produce single pixel width vessels. From these, individual vessel length, total vessel length and number of vessel branch points were determined. The data were then exported to Excel to calculate mean and standard deviation for each data set. Basic statistics were carried out using a one-way ANOVA.

Molecule	number of branches relative to the control group (20 μM suramin, p<0.05 one way ANOVA)	vessel formation relative to control wells (suramin 20 μM (FIG. 2))	all three vessel parameters relative to the control wells (suramin 20 μM)	branching relative to the control group	vessel formation relative to control wells (VEGF 2 ng/ml (FIG. 4))	all three vessel parameters relative to the control wells (VEGF 2 ng/ml)
Cc1ccc(C(=O)Nc2ccc(S(=O)(=O)O)c3cc(S(=O)(=O)O)cc(S(=O)(=O)O)c23)cc1NC(=O)c1cccc(NC(=O)Nc2cccc(C(=O)Nc3cc(C(=O)Nc4ccc(S(=O)(=O)O)c5cc(S(=O)(=O)O)cc(S(=O)(=O)O)c45)ccc3C)c2)c1 [Suramin, suramin]	significant reduction	decrease in vessel formation	significant decrease	–	–	–
VEGF	–	–	–	significant increase	increase in vessel formation	increase
